Our source for the IC50, Ki and Ratio IC50 values is ChEMBL document CHEMBL4052731, “Interconvertible geometric isomers of Plasmodium falciparum dihydroorotate dehydrogenase inhibitors exhibit multiple binding modes” (Bioorg Med Chem Lett, 2017).

Experiment [1] in a line: Inhibition of homologous location truncated N-terminal His-tagged Plasmodium falciparum DHODH expressed in Escherichia coli pyrD Sphi6745 by spectrophotometric analysis.
The nature of experiment [2]: Selectivity ratio of IC50 for homologous location truncated N-terminal His-tagged human DHODH to IC50 for homologous location truncated N-terminal His-tagged Plasmodium falciparum DHODH.
Experiment [3] has as its target Dihydroorotate dehydrogenase (quinone), mitochondrial (Homo sapiens, UniProt Q02127). The experiment in a line: Inhibition of homologous location truncated N-terminal His-tagged human DHODH expressed in Escherichia coli pyrD Sphi6745 by spectrophotometric analysis.

pIC50, pKi: −log10 of the molar value.

Dihydroorotate dehydrogenase (quinone), mitochondrial, sequence (Q02127 whole entry, the tested form may be a part): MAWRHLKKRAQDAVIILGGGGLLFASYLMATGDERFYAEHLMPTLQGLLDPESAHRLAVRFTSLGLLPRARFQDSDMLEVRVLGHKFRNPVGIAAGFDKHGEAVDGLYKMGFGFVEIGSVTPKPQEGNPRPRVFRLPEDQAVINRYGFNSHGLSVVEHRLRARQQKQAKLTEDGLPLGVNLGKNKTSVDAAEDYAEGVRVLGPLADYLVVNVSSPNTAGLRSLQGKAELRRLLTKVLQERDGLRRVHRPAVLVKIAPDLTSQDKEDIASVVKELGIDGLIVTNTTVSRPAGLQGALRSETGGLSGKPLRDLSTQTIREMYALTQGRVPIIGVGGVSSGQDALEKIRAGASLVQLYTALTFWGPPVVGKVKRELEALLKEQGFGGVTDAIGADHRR

In turn, `CC(=O)C(=CNc1ccc2sc3ccccc3c2c1)C(C)=O` had a pIC50 in experiment [1] below 4.00. For the compound `CCn1c2ccccc2c2cc(NC=C3C(=O)OC(C)(C)OC3=O)ccc21`, in experiment [1], the pIC50 is below 4.00. For `CCOC(=O)/C(C#N)=C\Nc1ccc2c(c1)c1ccccc1n2CC`, in experiment [1], the negative-log IC50 (pIC50) is 6.36 to 6.55 and the pKi is 7.30. Further, the Ratio IC50 in experiment [2] is 1000.

Regarding `CC1(C)OC(=O)C(=CNc2ccc3sc4ccccc4c3c2)C(=O)O1`, in experiment [1], the pIC50 is below 4.00. The same measure, in the same setting: in the case of `CCOC(=O)/C(C#N)=C(/C)Nc1ccc2c(c1)c1ccccc1n2CC` it was below 4.00. For the compound `CCOC(=O)C(=CNc1ccc2sc3ccccc3c2c1)C(=O)OCC`, in experiment [1], the negative-log IC50 (pIC50) is 6.80 and the negative logarithm of the Ki (pKi) was 7.70.

In experiment [1], `CCOC(=O)/C(=C/Nc1ccc2c(c1)c1ccccc1n2CC)[N+](=O)[O-]` gave a negative logarithm of the IC50 (pIC50) of 7.03 and a pKi of 7.43. This compound gave a pIC50 in experiment [3] below 4.00. In experiment [1], `CCOC(=O)/C(C#N)=C\Nc1ccc2sc3ccccc3c2c1` showed a pIC50 of 5.92. Turning to `CCn1c2ccccc2c2cc(NC=C(C(C)=O)C(C)=O)ccc21`, the negative logarithm of the IC50 (pIC50) in experiment [1] is below 4.00.

For the compound `CCOC(=O)/C(C#N)=C(/C)Nc1ccc2sc3ccccc3c2c1`, in experiment [1], the pIC50 was below 4.00. In experiment [1], `CCOC(=O)/C(=C\Nc1ccc2sc3ccccc3c2c1)[N+](=O)[O-]` had a pIC50 of 6.42 and a negative-log Ki (pKi) of 6.82. For the same compound, the pIC50 in experiment [3] is below 4.00. As for `CCOC(=O)C(=CNc1ccc2c(c1)c1ccccc1n2CC)C(=O)OCC`, in experiment [1], the pIC50 is 5.36.
